This is an account of results in patent US10577363B2, “Substituted piperidine compounds” (EPIZYME, INC., priority 2014, dated 2020).

The target of test [1] is T1, SMYD3 (Homo sapiens (Human), UniProt Q9H7B4). Nature of the test: SMYD3 cell assay (Trimethyl-MEKK2 In-Cell Western in 293T/17 cells). It counts as cell-based. Conditions: 293T/17 cells; read-out: SMYD3 Cell IC50 (μM)*. The method in brief:
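In-Cell Western ratio of trimethyl-Lys260 MEKK2 to anti-flag signal; percent inhibition from DMSO and maximum-inhibition controls, IC50 by non-linear regression, triplicates.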

Test [2] has as its target T1, SMYD3. Description: SMYD3 biochemical assay (SPA, 3H-SAM methylation of MEKK2 protein substrate). The note with it: read-out: SMYD3 Biochem IC50 (μM)*. The method in brief: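 Native full-length human SMYD3 (E. coli-expressed, tags removed) was preincubated with compound for 30 min at room temperature in 25 mM Tris-Cl pH 8.0, 1 mM TCEP, 0.005% BSG, 0.005% Tween 20. Reaction was started with 3H-SAM plus GST-MEKK2, quenched with 100 uM unlabeled SAM, and read by SPA scintillation counting.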

T1 sequence (Q9H7B4 whole entry): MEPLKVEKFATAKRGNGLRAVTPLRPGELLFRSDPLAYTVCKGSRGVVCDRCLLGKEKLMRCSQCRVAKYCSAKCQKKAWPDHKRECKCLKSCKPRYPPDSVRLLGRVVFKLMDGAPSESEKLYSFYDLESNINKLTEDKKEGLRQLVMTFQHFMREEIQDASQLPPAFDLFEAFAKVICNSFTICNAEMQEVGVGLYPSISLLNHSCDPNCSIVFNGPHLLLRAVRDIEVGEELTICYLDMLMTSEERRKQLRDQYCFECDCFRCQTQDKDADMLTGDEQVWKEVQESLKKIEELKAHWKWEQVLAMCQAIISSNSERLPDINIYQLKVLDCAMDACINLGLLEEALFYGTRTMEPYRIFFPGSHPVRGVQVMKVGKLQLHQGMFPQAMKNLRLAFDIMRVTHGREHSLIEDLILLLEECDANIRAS

Take `CCCCS(=O)(=O)N1CC[C@H](NC(=O)c2cc(C3CC3)on2)C[C@@H]1C` [compound 316, N-((2S,4S)-1-(butylsulfonyl)-2-methylpiperidin-4-yl)-5-cyclopropylisoxazole-3-carboxamide]: the IC50 at SMYD3 [1] turned out to be 0.782 µM; at SMYD3 [2] it was 0.237 µM.

As to `C[C@H]1C[C@@H](NC(=O)c2cc(C3CC3)on2)CCN1S(=O)(=O)c1cccnc1` [compound 317, 5-cyclopropyl-N-((2S,4S)-2-methyl-1-(pyridin-3-ylsulfonyl)piperidin-4-yl)isoxazole-3-carboxamide], the IC50 on SMYD3 [1] is 4.11 µM; on SMYD3 [2], 0.686 µM.

Take `C[C@H]1C[C@@H](NC(=O)c2cc(C3CC3)on2)CCN1S(=O)(=O)Cc1cccnc1` [compound 319, 5-cyclopropyl-N-((2S,4S)-2-methyl-1-((pyridin-3-ylmethyl)sulfonyl)piperidin-4-yl)isoxazole-3-carboxamide]: the 50% inhibitory concentration (IC50) came out at 4.53 µM on SMYD3 [1] and 1.43 µM on SMYD3 [2].

Take `C[C@@H]1C[C@H](NC(=O)c2cc(C3CC3)on2)CCN1S(=O)(=O)N(C)C` [compound 328, 5-cyclopropyl-N-((2R,4R)-1-(N,N-dimethylsulfamoyl)-2-methylpiperidin-4-yl)isoxazole-3-carboxamide]: the results for the IC50 at SMYD3 [1] and at SMYD3 [2] were 15.2 µM and 6.91 µM, respectively.

For the molecule `C[C@@H]1C[C@H](NC(=O)c2cc(C3CC3)on2)CCN1S(=O)(=O)Cc1cccnc1` [compound 329, 5-cyclopropyl-N-((2R,4R)-2-methyl-1-((pyridin-3-ylmethyl)sulfonyl)piperidin-4-yl)isoxazole-3-carboxamide], the figures for the IC50 on SMYD3 [1] and on SMYD3 [2] were 20 µM and 6.42 µM, respectively.

For the molecule `CC(=O)Nc1ccc(S(=O)(=O)N2CC[C@@H](NC(=O)c3cc(C4CC4)on3)C[C@H]2C)cc1` [compound 330, N-((2R,4R)-1-((4-acetamidophenyl)sulfonyl)-2-methylpiperidin-4-yl)-5-cyclopropylisoxazole-3-carboxamide], the figures for the IC50 at SMYD3 [1] and at SMYD3 [2] were 29.3 µM and greater than 10 µM, respectively.

As to `CCOC(=O)C1CN(S(=O)(=O)CCCN)CCC1NC(=O)c1cc(C2CC2)on1` (centres unmarked) [compound 331, ethyl 1-((3-aminopropyl)sulfonyl)-4-(5-cyclopropylisoxazole-3-carboxamido)piperidine-3-carboxylate], the IC50 was 2.31 µM on SMYD3 [1] and 0.147 µM at SMYD3 [2].

Consider `NCCCC(=O)N1CC[C@@H](NC(=O)c2cc(C3CC3)on2)C[C@H]1Cc1ccccc1` [compound 333, N-((2R,4R)-1-(4-aminobutanoyl)-2-benzylpiperidin-4-yl)-5-cyclopropylisoxazole-3-carboxamide], for which the concentration for half-maximal inhibition (IC50) is greater than 40 µM at SMYD3 [1] and greater than 10 µM at SMYD3 [2].

`NCCCC(=O)N1CC[C@@H](NC(=O)c2cc(C3CC3)on2)C[C@@H]1Cc1ccccc1` [compound 334, N-((2S,4R)-1-(4-aminobutanoyl)-2-benzylpiperidin-4-yl)-5-cyclopropylisoxazole-3-carboxamide]: the IC50 on SMYD3 [1] was found to be 33 µM; at SMYD3 [2], 1.9 µM.

In the case of `NCCCC(=O)N1CC[C@H](NC(=O)c2cc(C3CC3)on2)C[C@H]1Cc1ccccc1` [compound 335, N-((2R,4S)-1-(4-aminobutanoyl)-2-benzylpiperidin-4-yl)-5-cyclopropylisoxazole-3-carboxamide], the IC50 came to 19.6 µM on SMYD3 [1] and 1.12 µM at SMYD3 [2].

Turning to `NCCCC(=O)N1CC[C@H](NC(=O)c2cc(C3CC3)on2)C[C@@H]1Cc1ccccc1` [compound 336, N-((2S,4S)-1-(4-aminobutanoyl)-2-benzylpiperidin-4-yl)-5-cyclopropylisoxazole-3-carboxamide], the IC50 on SMYD3 [1] was determined as 1.62 µM; on SMYD3 [2], 0.0541 µM.

As for `C[C@H]1C[C@@H](NC(=O)c2cc(C3CC3)on2)CCN1C(=O)CC(C)(C)CN` [compound 337, N-((2S,4S)-1-(4-amino-3,3-dimethylbutanoyl)-2-methylpiperidin-4-yl)-5-cyclopropylisoxazole-3-carboxamide], the IC50 at SMYD3 [1] came out at 13 µM; at SMYD3 [2] it was 0.961 µM.

Take `C[C@H]1C[C@@H](NC(=O)c2cc(C3CC3)on2)CCN1C(=O)c1ccc2[nH]cnc2c1` [compound 340, N-((2S,4S)-1-(1H-benzo[d]imidazole-5-carbonyl)-2-methylpiperidin-4-yl)-5-cyclopropylisoxazole-3-carboxamide]: the IC50 on SMYD3 [1] was greater than 40 µM; at SMYD3 [2], greater than 10 µM.

On to `C[C@@H]1C[C@H](NC(=O)c2cc(C3CC3)on2)CCN1C(=O)c1ccc2[nH]cnc2c1` [compound 341, N-((2R,4R)-1-(1H-benzo[d]imidazole-5-carbonyl)-2-methylpiperidin-4-yl)-5-cyclopropylisoxazole-3-carboxamide], for which the values for the half-inhibitory concentration (IC50) on SMYD3 [1] and on SMYD3 [2] were 6.01 µM and 1 µM, respectively.

For `O=C(N[C@@H]1CCN(C(=O)CC2CCNCC2)[C@H](Cc2ccccc2)C1)c1cc(C2CC2)on1` [compound 349, N-((2R,4R)-2-benzyl-1-(2-(piperidin-4-yl)acetyl)piperidin-4-yl)-5-cyclopropylisoxazole-3-carboxamide], the IC50 on SMYD3 [1] was greater than 40 µM; at SMYD3 [2] it was 2.27 µM.

Turning to `C[C@@H]1C[C@H](NC(=O)c2cc(C3CC3)on2)CCN1S(=O)(=O)c1ccccc1` [compound 351, 5-cyclopropyl-N-((2R,4R)-2-methyl-1-(phenylsulfonyl)piperidin-4-yl)isoxazole-3-carboxamide], the IC50 at SMYD3 [1] worked out at 7.83 µM; on SMYD3 [2], 3.09 µM.

`C[C@H]1C[C@@H](NC(=O)c2cc(C3CC3)on2)CCN1S(=O)(=O)c1ccccc1` [compound 352, 5-cyclopropyl-N-((2S,4S)-2-methyl-1-(phenylsulfonyl)piperidin-4-yl)isoxazole-3-carboxamide]: the IC50 was determined as 0.996 µM at SMYD3 [1] and 0.152 µM at SMYD3 [2].

On to `C[C@@H]1C[C@H](NC(=O)c2cc(C3CC3)on2)CCN1S(=O)(=O)c1cccc(C#N)c1` [compound 354, N-((2R,4R)-1-((3-cyanophenyl)sulfonyl)-2-methylpiperidin-4-yl)-5-cyclopropylisoxazole-3-carboxamide], for which the values for the IC50 at SMYD3 [1] and on SMYD3 [2] were 5.65 µM and 1.14 µM, respectively.

For `C[C@H](C(=O)N1CC[C@H](NC(=O)c2cc(C3CC3)on2)C[C@@H]1C)C1CCNCC1` [compound 360, 5-cyclopropyl-N-((2S,4S)-2-methyl-1-((S)-2-(piperidin-4-yl)propanoyl)piperidin-4-yl)isoxazole-3-carboxamide], the IC50 at SMYD3 [1] was found to be 8.28 µM; on SMYD3 [2] it was 0.792 µM.

Turning to `C[C@@H](C(=O)N1CC[C@H](NC(=O)c2cc(C3CC3)on2)C[C@@H]1C)C1CCNCC1` [compound 361, 5-cyclopropyl-N-((2S,4S)-2-methyl-1-((R)-2-(piperidin-4-yl)propanoyl)piperidin-4-yl)isoxazole-3-carboxamide], the values for the IC50 at SMYD3 [1] and on SMYD3 [2] were 13.6 µM and 1.36 µM, respectively.

As for `C[C@@H]1C[C@H](NC(=O)c2cc(C3CC3)on2)CCN1C(=O)c1cccc(C(C)(C)N)c1` [compound 365, N-((2R,4R)-1-(3-(2-aminopropan-2-yl)benzoyl)-2-methylpiperidin-4-yl)-5-cyclopropylisoxazole-3-carboxamide], the IC50 on SMYD3 [1] is 3.88 µM; on SMYD3 [2] it was 0.454 µM.

`C[C@H]1C[C@@H](NC(=O)c2cc(C3CC3)on2)CCN1C(=O)c1cccc(C(C)(C)N)c1` [compound 367, N-((2S,4S)-1-(3-(2-aminopropan-2-yl)benzoyl)-2-methylpiperidin-4-yl)-5-cyclopropylisoxazole-3-carboxamide]: the IC50 was determined as 30.6 µM on SMYD3 [1] and 4.29 µM on SMYD3 [2].

As for `C[C@@H]1C[C@H](NC(=O)c2cc(C3CC3)on2)CCN1C(=O)c1ccc(C(C)(C)N)cc1` [compound 368, N-((2R,4R)-1-(4-(2-aminopropan-2-yl)benzoyl)-2-methylpiperidin-4-yl)-5-cyclopropylisoxazole-3-carboxamide], the IC50 is 1.04 µM at SMYD3 [1] and 0.122 µM on SMYD3 [2].

In the case of `C[C@H]1C[C@@H](NC(=O)c2cc(C3CC3)on2)CCN1C(=O)c1ccc(C(C)(C)N)cc1` [compound 370, N-((2S,4S)-1-(4-(2-aminopropan-2-yl)benzoyl)-2-methylpiperidin-4-yl)-5-cyclopropylisoxazole-3-carboxamide], the IC50 on SMYD3 [1] was greater than 40 µM; at SMYD3 [2] it was 4.39 µM.

As for `C[C@H]1C[C@@H](NC(=O)c2cc(C3CC3)on2)CCN1C(=O)C1CCCC(CN)C1` (stereo partly drawn) [compound 373, N-((2S,4S)-1-(3-(aminomethyl)cyclohexane-1-carbonyl)-2-methylpiperidin-4-yl)-5-cyclopropylisoxazole-3-carboxamide], the IC50 on SMYD3 [1] is 29.8 µM; on SMYD3 [2] it was 2.47 µM.

For the molecule `CC(=O)Nc1ccc(S(=O)(=O)N2CC[C@@H](NC(=O)c3cc(C4CC4)on3)C[C@@H]2C)cc1` [compound 377, N-((2S,4R)-1-((4-acetamidophenyl)sulfonyl)-2-methylpiperidin-4-yl)-5-cyclopropylisoxazole-3-carboxamide], the IC50 on SMYD3 [1] is 27.6 µM; at SMYD3 [2] it was greater than 10 µM.

On to `CC(=O)Nc1ccc(S(=O)(=O)N2CC[C@H](NC(=O)c3cc(C4CC4)on3)C[C@@H]2C)cc1` [compound 378, N-((2S,4S)-1-((4-acetamidophenyl)sulfonyl)-2-methylpiperidin-4-yl)-5-cyclopropylisoxazole-3-carboxamide], for which the IC50 is 2.74 µM on SMYD3 [1] and 0.577 µM at SMYD3 [2].

In the case of `CC(C)CN(C)c1ccc(S(=O)(=O)N2CC[C@H](NC(=O)c3cc(C4CC4)on3)C[C@@H]2C)cn1` [compound 381, 5-cyclopropyl-N-((2S,4S)-1-((6-(isobutyl(methyl)amino)pyridin-3-yl)sulfonyl)-2-methylpiperidin-4-yl)isoxazole-3-carboxamide], the IC50 at SMYD3 [1] was greater than 40 µM; on SMYD3 [2], greater than 10 µM.

By IC50 is commonly meant the concentration at which inhibition is half-maximal.
